Test results: PubChem BioAssay (NCI)
Where “and” joins values, the source holds several entries; their conditions need not be identical. Identical values can stand only once.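 Tested at 5 concentrations; 48 h exposure; 96-well plates; endpoints linearly interpolated, else capped at highest concentration. At the GI50, growth is halved. TGI denotes the concentration required for complete inhibition of growth.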

Legend:
Experiment in all cases: NCI tumour cell line growth inhibition, 48 h
[1] = test system: A549 NSCLC
[2] = test system: CCRF-CEM leukemia
[3] = test system: EKVX NSCLC
[4] = test system: HCC-2998 colon
[5] = test system: HOP-62 NSCLC
[6] = test system: OVCAR-5 ovarian
[7] = test system: SK-MEL-2 melanoma
[8] = test system: SK-MEL-5 melanoma
[9] = test system: SK-OV-3 ovarian
[10] = test system: SN12C renal

SMILES	GI50 [1]	TGI [1]	GI50 [2]	TGI [2] [µM]	GI50 [3] [µM]	TGI [3]	GI50 [4]	TGI [4]	GI50 [5]	TGI [5]	GI50 [6]	TGI [6]	GI50 [7]	TGI [7] [µM]	GI50 [8]	TGI [8]	GI50 [9]	TGI [9]	GI50 [10]	TGI [10]
Fc1ccc(-c2nn3c(COc4ccc(Cl)cc4)nnc3s2)cc1Oc1ccccc1	21.9 µM	> 100 µM	22.4 µM	74.4	30.8	> 74.2 µM	30.6 µM	92.8 µM	16.6 µM	35.6 µM	24.5 µM	> 59.1 µM	38.6 µM	> 100	18.2 µM	41.5 µM	78.9 µM	> 100 µM	> 46.1 µM	> 67 µM
C=C1CC/C=C(\C)CC[C@H](C(=C)C)[C@@H](O)/C=C(/CO)CCC1O (some centres not stated)	74.4 µM	> 100 µM	24 µM	48.6	60.4	> 100 µM	> 100 µM	> 100 µM	> 100 µM	> 100 µM	> 100 µM	> 100 µM	> 100 µM	> 100	35.1 µM	> 100 µM	> 100 µM	> 100 µM	> 100 µM	> 100 µM
N#CC(NC(=O)CCl)=C(Cl)Cl	3.51 µM	13.8 µM	0.377 µM	1.79	1.85	3.81 µM	1.89 µM	3.41 µM	2.15 µM	4.83 µM	1.96 µM	3.47 µM	2.16 µM	5.24	1.57 µM	3.27 µM	5.05 µM	16 µM	1.73 µM	3.26 µM
Nc1ccc(C(=O)/C=C/c2ccccc2O)cc1		> 100 µM		> 100		> 100 µM		> 100 µM		> 100 µM		> 100 µM		> 100		> 100 µM		> 100 µM		> 100 µM
N#CCCN(CCC#N)c1ccc(C=Nc2ccc(F)cc2)cc1		> 100 µM		> 100		> 100 µM		> 100 µM		> 100 µM		> 100 µM		> 32.3		> 100 µM		> 100 µM		> 100 µM
CC1=C2[C@@H](CC1)[C@]1(C)O[C@@](C3CC3)(C[C@H]1OC(=O)CO)[C@H]2OC(=O)/C=C/c1ccccc1	13.2 µM	27.3 µM	17.4 µM	39.7	11.5	25.1 µM	16.9 µM	33.2 µM	15.4 µM	30.2 µM	17.5 µM	36.5 µM	18.1 µM	36.1	16.7 µM	30.5 µM	15.6 µM	29.6 µM	0.736 µM	25.4 µM
COc1cc(OC)cc(-c2ccc(-c3ccc(C(=N)N)cn3)s2)c1	2.19 µM	4.69 µM	2.71 µM	7.29	2.58	7.17 µM	1.84 µM	3.48 µM	1.8 µM	3.67 µM	1.69 µM	3.13 µM	19.5 µM	40.3	1.77 µM	3.16 µM	11.3 µM	26.2 µM	1.78 µM	3.8 µM
O=c1cccccc1[O-].O=c1cccccc1[O-].O=c1cccccc1[O-].[Sm+3]		> 100 µM		> 100		> 100 µM		> 100 µM	37.1 µM	> 100 µM		> 100 µM		> 100		89.9 µM		> 100 µM	26.8 µM	> 100 µM
CCN(CC)CCOc1ccc2c(C)c(C(=O)OC)oc2c1C(=O)/C=C/c1ccc(OC)cc1	17.6 µM	40.6 µM	1.35 µM	4.52	19.7	36.5 µM	1.86 µM	3.72 µM	28.5 µM	> 55.6 µM	2.32 µM	6.99 µM	9.99 µM	> 23.2	20.4 µM	37.2 µM	4.12 µM	13.8 µM	0.166 µM	2.66 µM
O=c1nc2[nH]c3c(-c4n[nH]c(=O)[nH]c4=O)cccc3c2n[nH]1	> 100 µM	> 100 µM	> 100 µM	> 100	> 100	> 100 µM	> 100 µM	> 100 µM	> 100 µM	> 100 µM	> 100 µM	> 100 µM	> 100 µM	> 100	> 100 µM	> 100 µM	> 100 µM	> 100 µM	> 100 µM	> 100 µM
CC(=O)OCC1OC(n2c(=S)n(-c3ccccc3)c(=O)c3cc(Br)cc(Br)c32)C(OC(C)=O)C(OC(C)=O)C1OC(C)=O (configuration not stated)		> 100 µM		> 100		> 100 µM		> 100 µM	19.5 µM and > 100 µM	54.8 µM and > 100 µM		> 100 µM		> 100		> 100 µM	45.1 µM and > 100 µM	> 100 µM		> 100 µM
Nc1nc(=S)c2[nH]cnc2[nH]1	2.29 µM and 4.7 µM and 5.85 µM	> 57.7 µM and 105 µM and 85.1 µM	0.227 µM and 0.314 µM and 0.488 µM			> 100 µM and 143 µM and > 250 µM	0.382 µM and 1.19 µM	6.93 µM and 16.7 µM and 4.98 µM	0.472 µM	> 31.8 µM and 29.6 µM and 94.9 µM	0.498 µM and 1.93 µM	> 100 µM and 46 µM and > 250 µM	0.741 µM and 1.7 µM and 3.7 µM		1.59 µM and 2.68 µM and 6.68 µM		0.293 µM and 0.784 µM	8.82 µM and 17.5 µM and > 86 µM		> 100 µM and 171 µM and > 250 µM
Cc1ccnc(Nc2ccc([N+](=O)[O-])c(NCCN3CCOCC3)n2)c1	0.0141 µM	> 100 µM	0.0182 µM and 0.0265 µM	20.6	0.0292		0.0187 µM and 0.0171 µM	14.7 µM	0.00657 µM	71.8 µM	0.074 µM		0.00566 µM and 0.0304 µM	27.2	0.00564 µM	0.206 µM and 0.315 µM	0.00804 µM	64.7 µM	0.0425 µM and 0.048 µM	> 100 µM
NC(N)=N/N=C/c1c(-c2ccncc2)nc2sc(Cl)cn12	20.2 µM	40.4 µM	2 µM	4.58	21	39.2 µM	3.29 µM	9.36 µM	15.2 µM	37.2 µM	7.1 µM	21.4 µM	11.8 µM	> 33.7	18.1 µM	36.2 µM	22.4 µM	48.1 µM	2.59 µM	8.58 µM
